Results reported in patent US9839642B2, “Beta-tetrazolyl-propionic acids as metallo-beta-lactamase inhibitors” (priority 2014, dated 2017).

What was measured:
[1] = molecular target: VIM-1 (Pseudomonas aeruginosa, UniProt A0A0F7KYQ8); assay: Enzyme activity: determination of IC50, fluorescence assay with CCF2-FA substrate; assay type: biochemical; details: VIM-1 enzyme 30 pM, CCF2-FA 1.25 μM, 2 hours at 25° C.; read-out: VIM1 IC50
Method in brief: (§1)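 100 mM KH2PO4 pH 7 + 0.005% Tween-20 + 10 μM ZnSO4; CCF2-FA 1.25 μM; NDM-1 1 pM, IMP-1 2 pM, VIM-1 30 pM; cpd 20–0.00063 μM final, DMSO 1:50. 2 h, 25° C. Ex 405/em 460 nm; IC50, 4-param fit.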

[2] = molecular target: NDM-1 (Klebsiella pneumoniae, UniProt C7C422); assay: as above; assay type: biochemical; details: NDM-1 enzyme 1 pM, CCF2-FA 1.25 μM, 2 hours at 25° C.; read-out: NDM1 IC50
Method in brief: as §1

[3] = molecular target: IMP-1 (Serratia marcescens, UniProt P52699); assay: as above; assay type: biochemical; details: IMP-1 enzyme 2 pM, CCF2-FA 1.25 μM, 2 hours at 25° C.; read-out: IMP1 IC50
Method in brief: as §1

[4] = system: Klebsiella pneumoniae expressing VIM-1 (IHMA599644); assay: Antibiotic potentiation activity: synergistic concentration (MITC95) with imipenem, growth by OD600; assay type: cell-based; details: K. pneumoniae IHMA599644 (VIM-1), 95% inhibition of growth
Method in brief: (§2)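 MITC95 = lowest inhibitor concentration giving 95% growth inhibition, read by absorbance after 22–24 h at 35° C. Compound range 200 μM to 0.195 μM, imipenem fixed at 1 or 4 μg/ml, bacteria in 1.1×CAMHB from saline suspension diluted 1:100.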

[5] = system: Serratia marcescens expressing IMP-1 (CL5741); assay: as above; assay type: cell-based; details: S. marcescens CL5741 (IMP-1), 95% inhibition of growth
Method in brief: as §2

[6] = system: Escherichia coli expressing NDM-1 (CLB30016); assay: as above; assay type: cell-based; details: E. coli CLB30016 (NDM-1), 95% inhibition of growth
Method in brief: as §2

Sequence of NDM-1 (C7C422 29-270, looked up, species assumed): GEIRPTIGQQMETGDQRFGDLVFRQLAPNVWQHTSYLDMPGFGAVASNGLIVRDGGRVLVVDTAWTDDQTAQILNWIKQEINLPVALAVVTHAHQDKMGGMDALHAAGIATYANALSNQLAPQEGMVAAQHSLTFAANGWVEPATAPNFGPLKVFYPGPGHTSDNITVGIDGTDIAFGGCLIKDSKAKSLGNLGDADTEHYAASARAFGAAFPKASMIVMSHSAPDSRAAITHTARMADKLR
Sequence of IMP-1 (P52699 19-246, looked up, species assumed): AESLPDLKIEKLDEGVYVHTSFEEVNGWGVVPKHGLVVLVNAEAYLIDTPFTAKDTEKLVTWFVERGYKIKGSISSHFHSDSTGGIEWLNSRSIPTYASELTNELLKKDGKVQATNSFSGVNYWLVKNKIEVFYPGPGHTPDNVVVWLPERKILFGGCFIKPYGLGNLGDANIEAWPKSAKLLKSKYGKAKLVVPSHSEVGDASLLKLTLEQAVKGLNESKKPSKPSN

SMILES	IC50 [1] [nM]	IC50 [2] [nM]	IC50 [3] [nM]	VIM1 KP599644 MITC95 [4] [µM]	IMP1 SM5741 MITC95 [5] [µM]	NDM1 EC30016 MITC95 [6] [µM]
CCC[C@H](C(=O)O)[C@H](Cc1cccc(N2CCCCC2)c1)c1nn[nH]n1 [Example 368, (2S)-2-[(1S)-2-(3-piperidin-1-ylphenyl)-1-(2H-tetrazol-5-yl)ethyl]pentanoic acid]	9.7	46	740	50	37.5	25
CCC[C@H](C(=O)O)[C@H](Cc1cccc(N2CC[C@H](N)C2)c1)c1nn[nH]n1 [Example 369, (2S)-2-[(1S)-2-{3-[(3S)-3-aminopyrrolidin-1-yl]phenyl}-1-(2H-tetrazol-5-yl)ethyl]pentanoic acid]	3.2	150	2300	12.5	50	12.5
CCC[C@H](C(=O)O)[C@H](Cc1cccc(N2CCC[C@@H](N)C2)c1)c1nn[nH]n1 [Example 370, (2S)-2-[(1S)-2-{3-[(3R)-3-aminopiperidin-1-yl]phenyl}-1-(2H-tetrazol-5-yl)ethyl]pentanoic acid]	6.3	870	9000	41	175	44
CC(C)C[C@H](C(=O)O)[C@H](Cc1ccc(Oc2ccccc2C2CCCN2)nc1)c1nn[nH]n1 (stereo partly drawn) [Example 374, (2S)-4-methyl-2-[(1S)-2-[6-(2-pyrrolidin-2-ylphenoxy)pyridin-3-yl]-1-(2H-tetrazol-5-yl)ethyl]pentanoic acid]	3	12	90	62	9.4	9.4
CC(C)C[C@H](C(=O)O)[C@H](Cc1ccc(Oc2ccccc2C2CCCN2)nc1)c1nn[nH]n1 (stereo partly drawn) [Example 376, (2S)-4-methyl-2-[(1S)-2-[6-(2-pyrrolidin-2-ylphenoxy)pyridin-3-yl]-1-(2H-tetrazol-5-yl)ethyl]pentanoic acid]	4.6	77	660	50	25	25
CC(C)C[C@H](C(=O)O)[C@H](Cc1ccc(Oc2ccnc(N3CCNCC3)c2)nc1)c1nn[nH]n1 [Example 379, (2S)-4-methyl-2-[(1S)-2-{6-[(2-piperazin-1-ylpyridin-4-yl)oxy]pyridin-3-yl}-1-(2H-tetrazol-5-yl)ethyl]pentanoic acid]	7.1	32	370	100	16	9.4
CC(C)C[C@H](C(=O)O)[C@H](Cc1ccc(Oc2ccc(C(C)N)nc2)nc1)c1nn[nH]n1 (stereo partly drawn) [Example 380, (2S)-2-[(1S)-2-(6-{[6-(1-aminoethyl)pyridin-3-yl]oxy}pyridin-3-yl)-1-(2H-tetrazol-5-yl)ethyl]-4-methylpentanoic acid]	2.4	12	64	50	4.7	4.7
CC(C)C[C@H](C(=O)O)[C@H](Cc1ccc(Oc2ccccc2)nc1)c1nn[nH]n1 [Example 381, (2S)-4-methyl-2-[(1S)-2-(6-phenoxypyridin-3-yl)-1-(2H-tetrazol-5-yl)ethyl]pentanoic acid]	4.1	24	86	75	4.7	9.4
CC(C)C[C@H](C(=O)O)[C@H](Cc1ccc(Oc2cccc(C3CCCNC3)c2)nc1)c1nn[nH]n1 (stereo partly drawn) [Example 382, (2S)-4-methyl-2-[(1S)-2-[6-(3-piperidin-3-ylphenoxy)pyridin-3-yl]-1-(2H-tetrazol-5-yl)ethyl]pentanoic acid]	34	140	170	75	12.5	12.5
